Test results reported in patent US8809384B2, “Azaspirodecanone compounds” (Hoffmann-La Roche Inc., priority 2011, dated 2014).

Target: T1, human HSL (Homo sapiens, UniProt Q05469)
T1 construct: generate a full length human HSL ORF with a 3′-His6 tag; made in house; host or cells: High 5 insect cells (baculovirus, pFast-BAC)
T1 sequence (Q05469 1-1076): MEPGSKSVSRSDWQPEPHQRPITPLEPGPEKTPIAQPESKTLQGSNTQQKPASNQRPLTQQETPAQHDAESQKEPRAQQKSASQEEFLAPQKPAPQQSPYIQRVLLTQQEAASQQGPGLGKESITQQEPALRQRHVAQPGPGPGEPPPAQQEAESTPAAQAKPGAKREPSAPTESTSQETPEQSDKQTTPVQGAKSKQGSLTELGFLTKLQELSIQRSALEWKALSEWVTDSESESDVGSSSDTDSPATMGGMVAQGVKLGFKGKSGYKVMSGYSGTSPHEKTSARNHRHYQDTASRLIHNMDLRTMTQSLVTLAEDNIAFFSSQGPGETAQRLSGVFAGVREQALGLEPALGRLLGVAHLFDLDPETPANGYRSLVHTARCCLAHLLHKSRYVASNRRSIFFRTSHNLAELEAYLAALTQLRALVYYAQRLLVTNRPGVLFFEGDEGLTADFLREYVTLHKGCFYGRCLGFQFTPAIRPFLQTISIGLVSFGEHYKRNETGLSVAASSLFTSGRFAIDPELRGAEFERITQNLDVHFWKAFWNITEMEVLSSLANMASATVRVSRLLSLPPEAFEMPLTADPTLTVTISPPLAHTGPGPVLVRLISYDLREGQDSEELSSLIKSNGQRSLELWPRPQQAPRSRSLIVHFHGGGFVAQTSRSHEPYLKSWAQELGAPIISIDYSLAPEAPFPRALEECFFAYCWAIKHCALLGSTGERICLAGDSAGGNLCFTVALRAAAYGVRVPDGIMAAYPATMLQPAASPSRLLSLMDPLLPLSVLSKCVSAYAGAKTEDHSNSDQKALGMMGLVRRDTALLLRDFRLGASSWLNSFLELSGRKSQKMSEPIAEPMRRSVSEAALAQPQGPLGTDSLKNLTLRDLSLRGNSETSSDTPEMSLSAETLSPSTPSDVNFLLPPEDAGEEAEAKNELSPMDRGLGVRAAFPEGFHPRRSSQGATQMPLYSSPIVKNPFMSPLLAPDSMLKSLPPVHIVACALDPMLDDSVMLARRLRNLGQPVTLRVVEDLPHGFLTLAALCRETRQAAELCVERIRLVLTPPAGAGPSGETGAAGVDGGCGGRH
Assay: Human Hormone-Sensitive Lipase (HSL) enzyme inhibition assay (colorimetric, DMPT substrate)
Type: biochemical
Conditions: human full length HSL-His6, 2,3-dimercapto-1-propanol tributyrate substrate, 37° C., 20 minutes; read-out: HSL hum IC50
Experimental: Production of Human full length Hormone Sensitive Lipase-His^6: • 1) Cloning: cDNA was prepared from commercial human brain polyA+ RNA and used as a template in overlapping PCR to generate a full length human HSL ORF with a 3′-His6 tag. This full length insert was cloned into the pFast-BAC vector and the DNA-sequence of several single clones was verified. DNA from a correct full length clone with the 3′His6 tag was used to transform the E. coli strain DH10BAC. Resulting bacmid DNA was used to generate a titered baculovirus stock for protein generation. The sequence of the encoded HSL conforms to Swissprot entry Q05469, with the additional C-terminal His6-tag. • 2) Protein purification: Culture: 5.5 L, High 5 cells expressing human full length HSL-His^6, 48 hr., containing 25 μM E-64. Cell count: […], 90% viable. Cells were thawed. On ice, cells were suspended in Base Buffer containing 10% glycerol, 25 mM Tris-Cl, 300 mM NaCl, 10 mM imidazole, 10 mM 2-mercaptoethanol, 2 μg pepstatin/ml, 2 μg leupeptin/ml, 2 μg antipain/ml, pH 8.0 at 4° C. in a final volume of 475 ml with 3.75×10^7 cells/ml. […] was done at 3×30 sec., Lubrol PX was added to 0.2% final concentration followed by stirring for 15 min at 4° C. and centrifugation at 25 k×g, 60 min, 4° C. Soluble proteins were mixed with 60 ml of pre-washed and equilibrated Ni-NTA Agarose (Qiagen 30210) followed by tumbling end-over-end, 45 min., 4° C., centrifugation 1000 rpm 5 min and letting resin settle […]. Supernatant was removed, the resin washed in the centrifuge vessel using 5 volumes of Base Buffer containing 0.2% Lubrol PX. Centrifugation was done again, then the supernatant discarded. The resin was poured onto a 0.8 μm membrane in a disposable filter unit (Nalge 450-0080), and washed with 5 volumes of Base Buffer containing 0.2% Lubrol PX. It was then washed with 30 volumes of Base Buffer containing 60 mM imidazole pH 7.5 at 4° C. The protein was eluated with 5 volumes of 25 mM Tris-Cl, 300 mM NaCl, 200 mM imidazole, 10 mM 2-mercaptoethanol, pH 7.5 at 4° C. by tumbling resin with buffer end-over-end, 30 min., 4° C. The resin was captured on a 0.2 μm membrane disposable filter unit (Millipore SCGP U02 RE) and the eluate collected in the reservoir. The eluate was concentrated using a 30 k MWCO centrifugal filter device (Sartorius Vivascience Vivacell 100, VC1022), to 20 ml. It was then dialyzed overnight at 4° C., two times against 2 L of 10% glycerol, 25 mM Tris-Cl, 300 mM NaCl, 0.2 mM EDTA, 0.2 mM DTT, pH 7.5 at 4° C. The protein was filtered using a 0.22 μm disposable filter unit (Millipore SCGP00525). The protein concentration was calculated from absorbance at 280 nm, using 280=0.67 cm^−1 mg-1. Yield was 235 mg, total. The protein was stored at −80° C.
Human Hormone-Sensitive Lipase (HSL) Enzyme Inhibition Assay: • HSL enzyme activity was measured by a colorimetric assay using 2,3-dimercapto-1-propanol tributyrate (Aldrich, St. Louis, Mo.) as a substrate. Typically, 1.5 mM 2,3-dimercapto-1-propanol tributyrate (DMPT) in 100 mM MOPS, pH 7.2, 0.2 mg/ml fatty acid-free BSA was prepared by sonication at 4° C. to homogenous suspension. Test compounds (2 mM stock in DMSO) were diluted 3 fold in series in DMSO. Compound solutions were diluted 24 fold in 1.5 mM DMPT containing solution and 18 μl per well was added to 384-well microplates (Corning Costar). Twelve microliters per well of human HSL (15 μg/ml) was added and the reaction mixture was incubated at 37° C. for 20 minutes. Six microliters of 12 mM dithio-bis-(2-nitrobenzoic acid) (DTNB) in DMSO plus 1.2% SDS and 0.6% Triton X-100 were added and the mixture was incubated at room temperature for 15 minutes. Product production was monitored by reading absorbance at 405 nm on an Envision Reader (PerkinElmer Life and Analytical Sciences, Shelton, Conn.).

Compound | IC50
CC1(C)CCC(=O)N1C[C@]1(O)CC[C@]2(CCN(c3ccc(C(F)(F)F)cc3)C2=O)CC1 [Example 1, (5α,8α)-8-((2,2-dimethyl-5-oxopyrrolidin-1-yl)methyl)-8-hydroxy-2-(4-(trifluoromethyl)phenyl)-2-azaspiro[4.5]decan-1-one] | 14.9 nM
CC(C)Oc1ccc(N2CC[C@]3(CC[C@@](O)(CN4C(=O)CCC4(C)C)CC3)C2=O)cc1 [Example 2, (5α,8α)-8-((2,2-dimethyl-5-oxopyrrolidin-1-yl)methyl)-8-hydroxy-2-(4-isopropoxyphenyl)-2-azaspiro[4.5]decan-1-one] | 12.5 nM
CC(C)Oc1ccc(N2CC[C@]3(CC[C@@](O)(CN4CCOC4=O)CC3)C2=O)cc1 [Example 5, 3-(((5α,8α)-8-Hydroxy-2-(4-isopropoxyphenyl)-1-oxo-2-azaspiro[4.5]decan-8-yl)methyl)oxazolidin-2-one] | 5.9 nM
CC(C)Oc1ccc(N2CC[C@]3(CC[C@@](O)(CN4CC[C@@H](O)C4=O)CC3)C2=O)cc1 [Example 6, (5α,8α)-8-Hydroxy-8-(((R)-3-hydroxy-2-oxopyrrolidin-1-yl)methyl)-2-(4-isopropoxyphenyl)-2-azaspiro[4.5]decan-1-one] | 60 nM
CC(C)Oc1ccc(N2CC[C@]3(CC[C@@](O)(CN4CCNC4=O)CC3)C2=O)cn1 [Example 8, (5α,8α)-8-hydroxy-2-(6-isopropoxypyridin-3-yl)-8-((2-oxoimidazolidin-1-yl)methyl)-2-azaspiro[4.5]decan-1-one] | 300 nM
CC1(C)CCC(=O)N1C[C@]1(O)CC[C@]2(CCN(c3ccc([C@@H](O)C(F)(F)F)cc3)C2=O)CC1 [Example 9, (5α,8α)-8-(2,2-Dimethyl-5-oxo-pyrrolidin-1-ylmethyl)-8-hydroxy-2-[4-((R)-2,2,2-trifluoro-1-hydroxy-ethyl)-phenyl]-2-aza-spiro[4.5]decan-1-one] | 14.6 nM
CN1CCN(C[C@]2(O)CC[C@]3(CCN(c4ccc([C@@H](O)C(F)(F)F)cc4)C3=O)CC2)C1=O [Example 10, (5α,8α)-8-Hydroxy-8-(3-methyl-2-oxo-imidazolidin-1-ylmethyl)-2-[4-((R)-2,2,2-trifluoro-1-hydroxy-ethyl)-phenyl]-2-aza-spiro[4.5]decan-1-one] | 136 nM
C[C@@H](Oc1ccc(N2CC[C@]3(CC[C@@](O)(CN4C(=O)CCC45CC5)CC3)C2=O)cc1)C(F)(F)F [Example 11, (5α,8α)-8-hydroxy-8-((5-oxo-4-azaspiro[2.4]heptan-4-yl)methyl)-2-(4-((R)-1,1,1-trifluoropropan-2-yloxy)phenyl)-2-azaspiro[4.5]decan-1-one] | 7.1 nM
O=C1OCCN1C[C@]1(O)CC[C@]2(CCN(c3ccc(OCC(F)(F)F)cc3)C2=O)CC1 [Example 16, (5α,8α)-8-Hydroxy-8-(2-oxo-oxazolidin-3-ylmethyl)-2-[4-(2,2,2-trifluoro-ethoxy)-phenyl]-2-aza-spiro[4.5]decan-1-one] | 150 nM
O=C1CCC2(CC2)N1C[C@]1(O)CC[C@]2(CCN(c3ccc([C@@H](O)C(F)(F)F)cc3)C2=O)CC1 [Example 17, (5α,8α)-8-Hydroxy-8-(5-oxo-4-aza-spiro[2.4]hept-4-ylmethyl)-2-[4-((R)-2,2,2-trifluoro-1-hydroxy-ethyl)-phenyl]-2-aza-spiro[4.5]decan-1-one] | 40 nM

Now from value to compound:

IC50 | Compound
23.9 nM | CC(C)Oc1ccc(N2CC[C@]3(CC[C@@](O)(CN4CCN(C)C4=O)CC3)C2=O)cc1 [Example 3, (5α,8α)-8-hydroxy-2-(4-isopropoxyphenyl)-8-((3-methyl-2-oxoimidazolidin-1-yl)methyl)-2-azaspiro[4.5]decan-1-one]
11.4 nM | CC(C)Oc1ccc(N2CC[C@]3(CC[C@@](O)(CN4C(=O)CCC45CC5)CC3)C2=O)cc1 [Example 4, (5α,8α)-8-Hydroxy-2-(4-isopropoxy-phenyl)-8-(5-oxo-4-aza-spiro[2.4]hept-4-ylmethyl)-2-aza-spiro[4.5]decan-1-one]
138 nM | CC(C)Oc1ccc(N2CC[C@]3(CC[C@@](O)(CN4CCN(C)C4=O)CC3)C2=O)cn1 [Example 7, (5α,8α)-8-Hydroxy-2-(6-isopropoxy-pyridin-3-yl)-8-(3-methyl-2-oxo-imidazolidin-1-ylmethyl)-2-aza-spiro[4.5]decan-1-one]
9.7 nM | C[C@H](Oc1ccc(N2CC[C@]3(CC[C@@](O)(CN4C(=O)CCC45CC5)CC3)C2=O)cn1)C(F)(F)F [Example 12, (5α,8α)-8-hydroxy-8-((5-oxo-4-azaspiro[2.4]heptan-4-yl)methyl)-2-(6-((S)-1,1,1-trifluoropropan-2-yloxy)pyridin-3-yl)-2-azaspiro[4.5]decan-1-one]
7.5 nM | O=C1CCC2(CC2)N1C[C@]1(O)CC[C@]2(CCN(c3ccc(OCC(F)(F)F)cc3)C2=O)CC1 [Example 13, (5α,8α)-8-Hydroxy-8-(5-oxo-4-aza-spiro[2.4]hept-4-ylmethyl)-2-[4-(2,2,2-trifluoro-ethoxy)-phenyl]-2-aza-spiro[4.5]decan-1-one]
990 nM | O=C1OCC2(CC2)N1C[C@]1(O)CC[C@]2(CCN(c3ccc(OCC(F)(F)F)cc3)C2=O)CC1 [Example 15, (5α,8α)-8-Hydroxy-8-(5-oxo-6-oxa-4-aza-spiro[2.4]hept-4-ylmethyl)-2-[4-(2,2,2-trifluoro-ethoxy)-phenyl]-2-aza-spiro[4.5]decan-1-one]
